Data published in US20050004211A1, “Pharmaceutical compositions comprising aryl-substituted acyclic enediyne compounds” (KAOHSIUNG MEDICAL UNIVERSITY, priority 2003, published 2005).
Values after ≈ are worked out from the molar mass of the structure shown. Like-named read-outs stand apart in the source and are kept apart here.

Columns and labels:
KB = details: read-out: Cytotoxicities (IC50), KB; KB cell; earlier research work; cited from earlier work
Hep2,2,15 = details: read-out: Cytotoxicities (IC50), Hep2,2,15, earlier research work; cited from earlier work
[1] = system: Hela: human cervix epitheloid carcinoma; assay: In vitro anticancer assay (cytotoxicity), human solid tumor cells; details: for IC50: Homo sapiens, HeLa, read-out: IC50 Values of Cytotoxicities, Hela
[2] = system: DLD (DLD-1): human colon adenocarcinoma; assay: as above; details: for IC50: Homo sapiens, DLD-1, read-out: IC50 Values of Cytotoxicities, DLD
[3] = system: NCI (NCI-H661): human lung large cell carcinoma; assay: as above; details: for IC50 Values of Cytotoxicities, NCI: NCI (NCI-H661); for IC50: Homo sapiens, NCI-H661, read-out: IC50 Values of Cytotoxicities, NCI
Hepa: human hepatoma [4] = assay: as above; details: for IC50: Homo sapiens, HepA, read-out: IC50 Values of Cytotoxicities, Hepa
[5] = system: human hepatoma Hep G2 cells; assay: Cell cycle analysis by flow cytometry; format: cell-based; details: 72 hrs
Protocol: Samples of 1×10^6 Hep G2 cells were plated on a 6 cm tissue culture dish, and the cells were allowed to recover 24 hrs before any treatment. Thereafter, DMSO or a test compound (1 μM, 10 μM or 50 μM) was added to the cells for 1 hr in complete medium at 37° C., washed twice with PBS, and incubated in fresh media for the incubation time. Cell were harvested with trypsin and washed twice with PBS. Samples were fixed in 70% ethanol and stored at 4° C. for at least 24 hrs and then washed once with Mcllvaine's buffer (0.2M Na2HPO4, 0.1M citric acid, pH=7.5) and once again with PBS. Samples were stained with PI (propidium iodide) staining solution (PBS containing 100 μg/ml, RNase A and 10 μg/ml PI [Sigma]), processed on a Coulter Elite flow cytometry, and the data analyzed with the Mutiplus AV program.
To obtain more information about the effect(s) of the acyclic enediynes according to this invention upon the growth of cells, human hepatoma Hep G2 cells or K-562 cells were used, and the growth characteristic of said cells were measured subsequent to the treatment with a test compound.
1 μM or 10 μM of compound 5 was added to the cells, and after exposure to the compounds for 72 hrs, attached cells were analyzed by flow cytometry. The majority (71.5%) of control cells exposed to DMSO were in the G0-G1 phase of cell cycle, and only a small amount of cells was detected in either the S phase (22.7%) or G2/M (5.8%) phase. Moreover, after a 72 hrs treatment with compound 5 (1 and 10 μM), cells progressed to the S phase and the majority of cell population was almost arrested at the S phase. Consistent with this cell cycle arrest, only 36.6% (1 μM) and 46.9% (10 μM) of the cells were found at the G0-G1 phase, 63.2% (1 μM) and 53.0% (10 μM) in S phase, and 0.2% (1 μM) and 0.1% (10 μM) in G2/M phase. However, the significant blockage of the Hep G2 cell cycle in S phase was observed and was induced by both concentrations (1 μM and 10 μM) of compound 5.

[6] = system: Hela: human cervix epitheloid carcinoma
Hepa: human hepatoma [7] = system: Hepa: human hepatoma
[8] = system: KB: human oral epidermoid carcinoma; assay: In vitro anticancer assay (cytotoxicity), human solid tumor cells
topoisomerase I = biological target: T1, topoisomerase I (Homo sapiens, UniProt P11387); assay: Topoisomerase I course assay, cleavage of supercoiled pGEM9zf(−) DNA, gel electrophoresis; format: biochemical; details: 87 μM compound
T1 sequence (P11387 1-765): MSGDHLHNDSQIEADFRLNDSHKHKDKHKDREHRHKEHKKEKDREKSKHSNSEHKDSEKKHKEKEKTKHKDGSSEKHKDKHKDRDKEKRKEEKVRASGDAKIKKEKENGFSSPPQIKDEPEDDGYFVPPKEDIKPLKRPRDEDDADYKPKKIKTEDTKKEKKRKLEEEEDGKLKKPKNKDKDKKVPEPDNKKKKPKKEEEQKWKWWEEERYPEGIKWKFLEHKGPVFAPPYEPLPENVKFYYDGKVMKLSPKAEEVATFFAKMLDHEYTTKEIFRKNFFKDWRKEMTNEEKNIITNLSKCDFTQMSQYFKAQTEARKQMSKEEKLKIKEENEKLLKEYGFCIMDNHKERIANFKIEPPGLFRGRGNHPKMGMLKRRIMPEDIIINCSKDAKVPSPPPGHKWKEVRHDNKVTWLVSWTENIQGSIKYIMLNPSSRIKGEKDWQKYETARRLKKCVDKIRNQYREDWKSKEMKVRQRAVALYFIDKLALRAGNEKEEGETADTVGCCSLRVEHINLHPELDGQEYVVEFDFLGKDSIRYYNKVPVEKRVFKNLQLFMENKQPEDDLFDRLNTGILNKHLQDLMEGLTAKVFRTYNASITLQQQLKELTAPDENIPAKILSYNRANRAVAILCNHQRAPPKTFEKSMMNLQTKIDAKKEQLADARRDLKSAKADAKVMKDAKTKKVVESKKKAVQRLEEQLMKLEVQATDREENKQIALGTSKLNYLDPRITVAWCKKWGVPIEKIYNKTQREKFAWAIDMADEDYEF

Row | SMILES | IC50 (KB) | IC50 (Hep2,2,15) | IC50 Values of Cytotoxicities, DLD [2] | IC50 Values of Cytotoxicities, NCI [3] | IC50 [1] | IC50 [2] | IC50 [3] | IC50 (Hepa: human hepatoma [4]) | also measured
1 | N#Cc1ccccc1C#C/C=C\C#CCOC1CCCCO1 (stereo not shown) [Compound 1, 2-(7-(Tetrahydropyranyloxy)-3(Z)-hepten-1,5-diynyl)-benzonitrile] | 0.1 µM | > 10 µM | 8.61 µg/mL | —* (“—” means IC50 >20 μg/ml) | – | – | – | – | IC50 Values of Cytotoxicities, Hela [1]: 9.97 µg/mL; IC50 Values of Cytotoxicities, Hepa (Hepa: human hepatoma [4]): 14.26 µg/mL
2 | N#Cc1ccccc1C#C/C=C\C#CCCCOC1CCCCO1 (stereo not shown) [Compound 2, 2-(9-(Tetrahydropyranyloxy)-3(Z)-nonen-1,5-diynyl)-benzonitrile] | < 0.01 µM | > 10 µM | — (“—” means IC50 >20 μg/ml) | — (“—” means IC50 >20 μg/ml) | – | – | – | – | IC50 Values of Cytotoxicities, Hela [1]: 10.62 µg/mL; IC50 Values of Cytotoxicities, Hepa (Hepa: human hepatoma [4]): 14.66 µg/mL
3 | CCCCC#C/C=C\C#Cc1ccccc1C#N [Compound 3, 2-(3(Z)-Decen-1,5-diynyl)benzonitrile] | < 0.01 µM | 17 µM | – | – | > 20 µg/mL | 5.03 µg/mL (≈ 21.6 µM) | > 20 µg/mL | 12.5 µg/mL (≈ 53.5 µM) | –
4 | CCCCCC#C/C=C\C#Cc1ccccc1C#N [Compound 4, 2-(3(Z)-Undecen-1,5-diynyl)benzonitrile] | < 0.01 µM | > 10 µM | – | – | 6.38 µg/mL (≈ 25.8 µM) | > 20 µg/mL | > 20 µg/mL | 7.28 µg/mL (≈ 29.4 µM) | –
5 | N#Cc1ccccc1C#C/C=C\C#Cc1ccccc1 [Compound 5, 2-(6-phenyl-3(Z)-hexen-1,5-diynyl)benzonitrile] | – | – | – | – | > 20 µg/mL | > 20 µg/mL | 7.01 µg/mL (≈ 27.7 µM) | 1.09 µg/mL (≈ 4.3 µM) | cells at the G0-G1 phase ([5]; 1 μM): 36.6%; cells in G2/M phase ([5]; 1 μM): 0.2%; cells in S phase ([5]; 1 μM): 63.2%; cells at the G0-G1 phase ([5]; 10 μM): 46.9%; cells in G2/M phase ([5]; 10 μM): 0.1%; cells in S phase ([5]; 10 μM): 53.0%
6 | CCCCC#C/C=C\C#Cc1ccc(Cl)cc1 [Compound 13] | – | – | – | 8.00 µg/mL | – | – | – | – | IC50 Values of Cytotoxicities, Hela [6]: 9.83 µg/mL; IC50 Values of Cytotoxicities, Hepa (Hepa: human hepatoma [7]): — (key: “—” means IC50 >20 μg/ml); IC50 Values of Cytotoxicities, KB [8]: — (“—” means IC50 >20 μg/ml)
7 | CCCCCCC#C/C=C\C#Cc1ccc(C(C)=O)cc1 [Compound 23, 4-(3-(Z)-Dodecen-1,5-diynyl)acetophenone] | – | – | — (“—” means IC50 >20 μg/ml) | 13.13 µg/mL | – | – | – | – | inhibition of topo I (topoisomerase I): displayed inhibitory activities of topo I; IC50 Values of Cytotoxicities, Hela [6]: — (key: “—” means IC50 >20 μg/ml); IC50 Values of Cytotoxicities, Hepa (Hepa: human hepatoma [7]): — (key: “—” means IC50 >20 μg/ml)
